In the supplement of paper PMC10307832:

Assays:
Experiment in all cases: relative viability (nuclei count vs DMSO), 5 days (fraction); higher = more cells survive
[1] = compound: C1=CC=C(C(=C1)C2=CC=C(C=C2)C3=CSC4=C3C(=C(C(=O)N4)C#N)O)O + CC(=O)c1c(C)c2cnc(Nc3ccc(N4CCNCC4)cn3)nc2n(C2CCCC2)c1=O [Palbociclib] (partner 0.5 µM)
How it was run: (§1)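 A single step with final 0.05% Triton X-100, 1% formaldehyde and 1 ug/ml Hoechst fixed the cells and stained nuclei 5 days after treatment. Lung cancer cell lines in 1536-well plates had been treated by pin tool the day after seeding with one drug alone or a fixed anchor-drug dose plus five library-drug doses (not always all listed) in √10 steps, and nuclei were counted on 4× images. Relative viability is the ratio of nuclei in treated wells to nuclei in vehicle wells, taken as the median of duplicate plates.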

[2] = compound: CC1=CN2C(=O)C=C(N=C2C(=C1)C(C)NC3=CC=CC=C3)N4CCOCC4 [TGX 221] + N=C(N)NC(=N)NCCc1ccccc1 [Phenformin] (partner 250 µM)
How it was run: as §1

[3] = compound: CC1=CN2C(=O)C=C(N=C2C(=C1)C(C)NC3=CC=CC=C3)N4CCOCC4 [TGX 221] + O=C(c1cc(Cc2n[nH]c(=O)c3ccccc23)ccc1F)N1CCN(C(=O)C2CC2)CC1 [Olaparib] (partner 8 µM)
How it was run: as §1

[4] = compound: O=C(CCCCCCNC(=O)c1cnc(N(c2ccccc2)c2ccccc2)nc1)NO [Ricolinostat] + N=C(N)NC(=N)NCCc1ccccc1 [Phenformin] (partner 250 µM)
How it was run: as §1

Row | Cell Line | relative viability ([1]; first compound 0.08 µM) | relative viability ([1]; first compound 0.253 µM) | relative viability ([1]; first compound 0.8 µM) | relative viability ([1]; first compound 2.53 µM) | relative viability ([1]; first compound 8 µM) | relative viability ([2]; first compound 0.08 µM) | relative viability ([2]; first compound 0.253 µM) | relative viability ([2]; first compound 0.8 µM) | relative viability ([2]; first compound 2.53 µM) | relative viability ([2]; first compound 8 µM) | relative viability ([3]; first compound 0.08 µM) | relative viability ([3]; first compound 0.253 µM) | relative viability ([3]; first compound 0.8 µM) | relative viability ([3]; first compound 2.53 µM) | relative viability ([3]; first compound 8 µM) | relative viability ([4]; first compound 0.08 µM) | relative viability ([4]; first compound 0.253 µM) | relative viability ([4]; first compound 0.8 µM) | relative viability ([4]; first compound 2.53 µM)
1 | 201T | 0.381 | 0.361 | 0.362 | 0.38 | 0.387 | 0.459 | 0.436 | 0.428 | 0.434 | 0.439 | 0.837 | 0.834 | 0.821 | 0.834 | 0.777 | 0.41 | 0.449 | 0.452 | 0.467
2 | A549 | – | – | – | – | – | 0.198 | 0.138 | 0.185 | 0.209 | 0.152 | 0.375 | 0.318 | 0.0939 | 0.301 | 0.422 | – | 0.114 | 0.132 | 0.155
3 | A-427 | 0.551 | 0.535 | 0.504 | 0.553 | 0.543 | 0.341 | 0.297 | 0.307 | 0.39 | 0.326 | 0.635 | 0.704 | 0.714 | 0.625 | 0.71 | – | 0.303 | 0.298 | 0.337
4 | ABC-1 | 0.615 | 0.921 | 0.804 | 0.591 | 0.433 | 0.228 | 0.228 | 0.19 | 0.217 | 0.253 | 0.8 | 0.86 | 0.908 | 0.781 | 0.876 | 0.27 | 0.24 | 0.253 | 0.274
5 | BEN | 0.582 | 0.514 | 0.481 | 0.474 | 0.507 | 0.24 | 0.257 | 0.273 | 0.27 | 0.265 | 1.16 | 0.887 | 1.05 | 0.882 | 1.01 | 0.321 | 0.283 | 0.228 | 0.225
6 | CAL-12T | 0.429 | 0.62 | 0.455 | 0.405 | 0.437 | 0.629 | 0.55 | 0.62 | 0.56 | 0.661 | 0.705 | 0.709 | 0.72 | 0.678 | 0.747 | 0.489 | 0.548 | 0.559 | 0.517
7 | COR-L23 | 0.297 | 0.384 | 0.374 | 0.323 | 0.243 | 0.436 | 0.4 | 0.445 | 0.485 | 0.457 | 0.368 | 0.326 | 0.405 | 0.315 | 0.334 | 0.363 | 0.379 | 0.402 | 0.227
8 | COR-L 105 | 0.431 | 0.403 | 0.419 | 0.401 | 0.42 | 0.514 | 0.45 | 0.569 | 0.572 | 0.412 | 0.649 | 0.696 | 0.712 | 0.584 | 0.557 | – | 0.562 | 0.458 | 0.471
9 | Calu-6 | – | – | – | – | – | – | – | – | – | – | 0.55 | 0.513 | 0.549 | 0.536 | 0.512 | – | – | – | –
10 | ChaGo-K-1 | 0.839 | 0.913 | 1.01 | 1.01 | 0.836 | 0.479 | 0.512 | 0.481 | 0.456 | 0.494 | 0.399 | 0.387 | 0.374 | 0.359 | 0.426 | 0.537 | 0.494 | 0.46 | 0.513
11 | EBC-1 | – | – | – | – | – | – | – | – | – | – | 0.664 | 0.697 | 0.616 | 0.676 | 0.55 | – | – | – | –
12 | EKVX | 0.312 | 0.365 | 0.512 | 0.793 | 0.334 | 0.213 | 0.225 | 0.232 | 0.22 | 0.221 | 0.75 | 0.758 | 0.792 | 0.691 | 0.709 | 0.201 | 0.251 | – | 0.222
13 | EMC-BAC-2 | 0.523 | 0.595 | 0.507 | 0.539 | 0.51 | 0.528 | 0.508 | 0.506 | 0.499 | 0.519 | 0.463 | 0.453 | 0.526 | 0.418 | 0.472 | 0.475 | 0.481 | 0.476 | 0.396
14 | EPLC-272H | 0.329 | – | 0.281 | 0.336 | 0.304 | 0.298 | 0.275 | 0.291 | 0.269 | 0.27 | 0.786 | 0.582 | 0.845 | 0.483 | 0.504 | 0.263 | 0.273 | 0.26 | 0.144
15 | H3255 | 0.311 | 0.346 | 0.294 | 0.31 | 0.319 | 0.369 | 0.382 | 0.326 | 0.374 | 0.354 | 0.508 | 0.536 | 0.561 | 0.547 | 0.499 | 0.367 | 0.358 | 0.405 | 0.416
16 | HARA | 0.228 | 0.211 | 0.218 | 0.234 | 0.279 | 0.563 | 0.422 | 0.426 | 0.424 | 0.543 | 0.658 | 0.917 | 0.868 | 0.629 | 0.711 | 0.411 | 0.452 | 0.427 | 0.124
17 | HCC-15 | 0.786 | 0.867 | 0.766 | 0.897 | 0.617 | 0.482 | 0.471 | 0.483 | 0.451 | 0.497 | 0.641 | 0.728 | 0.756 | 0.704 | 0.719 | 0.411 | 0.509 | 0.486 | 0.496
18 | HCC-44 | 1.08 | 1.05 | 0.995 | 0.979 | 0.964 | 0.157 | 0.212 | 0.212 | 0.201 | 0.177 | 1 | 1.04 | 1.05 | 1.08 | 1 | 0.186 | 0.265 | 0.169 | 0.166
19 | HCC-78 | 0.463 | 0.477 | 0.45 | 0.602 | 0.413 | 0.675 | 0.641 | 0.533 | 0.558 | 0.604 | 0.801 | 0.69 | 0.753 | 0.618 | 0.623 | – | 0.761 | 0.596 | 0.428
